Where a SMILES comes first, the peptide text is derived from it. Bridges are numbered along the chain shown (N, C = ends). Roman numbers before positions name the chains, in order. Primed or numbered codes have the meaning given here. Where no end group is shown, it is not given here. The star is where a group is joined. 5FAM = O=C1OC2(c3ccc(O)cc3Oc3cc(O)ccc32)c2ccc(C(=O)*)cc21; 5FAM″ = 5-carboxyfluorescein label
Key:
[1] = test system: monocrotaline-induced PAH lesions; experiment: Peptide homing to lungs in monocrotaline-induced PAH rats (anti-FITC immunohistochemistry); type: in vivo, rat; conditions: for accumulation in the kidney: MCT-treated PAH rats and untreated healthy animals; for accumulation of peptide in the PAH lungs: 2 hours after injection
Description: Monocrotaline (Sigma-Aldrich, St. Louis, Mo.) was dissolved in 0.3 M hydrochloride solution and neutralized with 0.3 M sodium hydroxide solution, and adjusted pH around 7.0. Adult male Sprague-Dawley rats (150-200 g, Harlan Laboratories, Indianapolis, Ind.) were administered with a single subcutaneous injection of monocrotaline solution at a dose of 60 mg/kg body weight, while control rats were administered with 0.9% saline (Bader, M. Rat models of cardiovascular diseases. Methods Mol Biol 597, 403-14 (2010)). Rats were randomly selected and studied for peptide targeting studies on 1, 3, 7, 14 or 21 days after the treatment of monocrotaline.
(§1) The following peptides were labeled with 5-carboxyfluorescein (FAM) and used for the lung targeting studies: CAR, CARSKNKDC (SEQ ID NO:147); VCAM1, CVHSPNKKCGGSK (SEQ ID NO:13); CG7C control CGGGGGGGC (SEQ ID NO:14); CAR mutant (CAR-M), CAQSNNKDC (SEQ ID NO:15). Peptides were dissolved in PBS at the concentrations of 0.5 mg/mL. Hypertensive rats were injected with peptide solution through tail vein (3.3 mg/kg). At 2 hours after the injection, rats were perfused with PBS containing 1% bovine serum albumin under the deep anesthesia and tissues were fixed by systemic perfusion with 10% buffered formalin. The organs were excised and fixed for additional 24 hours and processed for anti-fluorescein immunohistochemistry.
To determine the localization of the peptides, paraffin-embedded tissue sections were immunostained with rabbit anti-fluoroscein isothiocyanate (FITC) antibody (Invitrogen, Carlsbad, Calif.) followed by horseradish peroxidase-labeled anti-rabbit IgG secondary antibody. The peptide localization was then visualized by DAB. Sections were counter stained with hematoxylin to visualize the region of cells. An automated staining system, Discovery XT (Ventana, Tucson, Ariz.) was used for the staining. To examine the co-localization of the peptides with macrophages or alveolar type II cells, tissue sections were doubly stained with rabbit anti-FITC antibody and mouse anti-rat-CD68 antibody; EDI (Serotec, Raleigh, N.C.) or rabbit anti-Prosurfactant Protein C (proSP-C, Millipore, Temecula, Calif.), respectively. For FITC/proSP-C double staining, FITC staining was completed first. The tissues sections were then treated withcitrate buffer (pH 6.0) at 98° C. for 10 min before proceeding to proSP-C staining. Biotinylated species-specific secondary antibodies and alkaline phosphatase-labeled streptavidin (Vector Laboratories, Burlingame, Calif.) were used to visualize macrophages and alveolar type II cells with Permanent Red (Dako, Carpinteria, Calif.).
Images of stained slides were observed and captured with ECLIPSE 90i or 80i microscope with CCD camera DS-5M (Nikon Instruments, Melville, N.Y.). To quantify the targeting efficiency of the peptides to the lung, the immunostained sections were scanned by Aperio Scanscope XT and analyzed using ImageScope software (Aperio Technologies, Vista, Calif.). For the quantification of area and density of peptide staining, the Aperio Color Deconvolution tool was used to compare total peptide positive area and intensity of peptide staining in each animal. The thresholds were set empirically for strong, medium, and weak staining. The area of each level of staining was presented as percent of such area in the total cell area. The total stained area was normalized by hematoxylin stained area of same regions.
A rat model of monocrotaline (MCT)-induced pulmonary arterial hypertension was used for this study. Briefly, male Sprague-Dawley rats (150-200 g, Harlan Laboratories, IN) were administered with a single subcutaneous injection of monocrotaline at 60 mg/kg (Sigma-Aldrich, MO), while control rats administered 0.9% saline. Rats were randomly selected and studied for peptide distribution studies on 1, 3, 7, 14 or 21 days after the treatment of monocrotaline. […]

4T1 tumors = experiment: In vivo tumor homing of FAM-labeled peptides (confocal imaging); conditions: 200 μL of 1 mM FAM-peptide i.v.
Description: Mice bearing orthotopic tumors generated with 4T1 mouse breast cells were intravenously injected with the 200 μL of 1 mM fluorescamine (FAM)-conjugated CAR peptide. The circulation time was 1 hour.
Confocal images of sections of the tumor and normal organs from mice injected with the 200 μL of 1 mM FAM-tCAR peptide. The circulation time was 2 hours.
Confocal images of sections of the tumor and normal organs from mice injected with the 200 μL of 1 mM FAM-ARSKNK peptide. The circulation time was 1 hour.
Confocal images of sections of the tumor and normal organs from mice injected with the 200 μL of 1 mM FAM-KNKSRAC-CARSKNK peptide (SEQ ID NO:4). The circulation time was 1 hour.

mitochondrial membranes = conditions: at a concentration of 10 μM; cited from earlier work
[2] = test system: SU5416/hypoxia-induced PAH lesions; type: in vivo, rat
Description: Adult male Sprague-Dawley rats (approx. 200 g) were injected subcutaneously with SU5416 (20 mg/kg body weight; SUGEN Inc, South San Francisco, Calif.), which was suspended in carboxymethylcellulose (0.5% carboxymethylcellulose sodium, 0.9% sodium chloride, 0.4% polysorbate, 0.9% benzyl alcohol in deionized water). The rats were then exposed to chronic hypoxia in a hypobaric chamber (barometric pressure, 410 mm Hg: inspired O2 tension, 76 mm Hg) for 3 weeks followed by an additional 6 weeks of reexposure to normoxia. Rats were examined at 9 weeks after the injection of SU5416 when they develop severe occlusive pulmonary arterial lesions (Abe, K. et al. Formation of plexiform lesions in experimental severe pulmonary arterial hypertension. Circulation 121, 2747-54 (2010)).
as §1, with “CVHSPNKKCGGSK” left out, “The organs were excised and fixed for additional 24 hours and processed for anti-fluorescein immunohistochemistry.” left out

[3] = MCT-treated rats, FAM-peptide 3.3 mg/kg i.v.

With “CGGGGGGGC (5FAM-CGGGGGGGC; cysteine pairing not given here) [CG7C]” the “accumulation in the kidney” value [1] was “also accumulated in the kidney” and the “accumulation of peptide in the PAH lungs” value [1, 3] was “only very weak staining”.

With ARSKNK (5FAM-ARSKNK) the “accumulation in tumor tissue” value (4T1 tumors; circulation time 1 hour) was “Little ARSKNK peptide accumulated in the tumor tissue” and the “fluorescence in the heart” value (4T1 tumors; circulation time 1 hour) was “some fluorescence was detected in the heart”.

In the case of “KNKSRAC-CARSKNK (disulfide I:7-II:1 (inferred); not fully specified (N-terminus); also: FAM label, position not given here) [dimeric tCAR]”, the “accumulation in tumor tissue” value (4T1 tumors; circulation time 1 hour) is reported as “less tumor accumulation than the monomeric tCAR peptide”.

With `C[C@@H]1NC(=O)[C@@H](NC(=O)c2ccc3c(c2)C(=O)OC32c3ccc(O)cc3Oc3cc(O)ccc32)CSSC[C@@H](C(=O)O)NC(=O)[C@H](CC(=O)O)NC(=O)[C@H](CCCCN)NC(=O)[C@H](CC(N)=O)NC(=O)[C@H](CCCCN)NC(=O)[C@H](CO)NC(=O)[C@H](CCCNC(=N)N)NC1=O` [CAR, CARSKNKDC] (5FAM-CARSKNKDC-OH; disulfide 1-9) the “accumulation in the kidney” value [1] was “accumulation in the kidney was observed” and the “accumulation in other organs” value ([1]; MCT-treated rats, organs other than lung, except kidney) was “absent or very weak”.

In the case of “D(KLAKLAK)2 (KLAKLAKKLAKLAK; D-amino acids; membrane perturbing molecule)”, the mitochondrial swelling (mitochondrial membranes) is given as “marked mitochondrial swelling”.

In the case of “CAQSNNKDC (cysteine pairing not given here; also: labelled with FAM, site not given here) [CAR-M]”, the “accumulation of peptide in PAH lungs / PAH lesion” value ([2]; 9 weeks after SU5416, FAM-peptide 3.3 mg/kg i.v., 2 hours) is reported as “only negligible signal” and the “detection in remodeled arteries from lung tissue” value ([2]; peptide 1 mg/300 g rat i.v. in hemodynamic study, anti-fluorescein staining) is reported as “not”.

With “CVHSPNKKCGGSK (CVHSPNKKCGGSK-{5FAM″}; cysteine pairing not given here) [VCAM-1 binding peptide]” the “accumulation of peptide in the PAH lungs” value [1, 3] was “accumulated in the PAH lungs to a similar extent to CAR” and the “accumulation of peptide in healthy normal lung” value ([1]; non-MCT-treated rats, FAM-peptide 3.3 mg/kg i.v., 2 hours) was “a fair amount”.

For “CARSKNK (also: FAM label, position not given here) [tCAR]”, the “accumulation in normal tissues” value (4T1 tumors; circulation time 2 hours) was “not detectable accumulation” and the “spreading within tumor tissue” value (4T1 tumors; circulation time 2 hours) was “wider spreading within tumor tissue than CAR”.

From patent US20120034164A1, “TRUNCATED CAR PEPTIDES AND METHODS AND COMPOSITIONS USING TRUNCATED CAR PEPTIDES” (Sanford-Burnham Medical Research Institute California, priority 2010, published 2012)
